Patent US20160115447A1, “COMPOSITIONS AND METHODS FOR IMPROVING INDUCED NEURON GENERATION” (PRESIDENT AND FELLOWS OF HARVARD COLLEGE, priority 2013, published 2016)
Read-outs that look alike come from different tables or passages of the source.

Legend:
mouse adult fibroblasts = experiment: transcription factor-mediated conversion of mouse adult fibroblasts into Hb9::GFP+ spinal motor neurons (iMN conversion screen); type: cell-based; conditions: days 1-5, 6-10 or 11-15 of reprogramming, FIG. 4
Excerpt: FIGS. 1A and 1B illustrate the screens performed to identify small molecule enhancers of induced motor neuron (iMN) conversion. FIG. 1A is a schematic illustration depicting the primary screen for small molecules enhancers of iMN conversion via viral transduction with 7 transcription factors performed on fibroblasts harvested from 2 month old Hb9::GFP mice. FIG. 1B is a graphical illustration depicting the results of a secondary screen performed on the top hits identified by the primary screen depicted in FIG. 1A, pointing to two lead compounds as effective enhancers of iMN conversion.
To this end, a functional reprogramming screen was used to identify small molecules that increase the rate of transcription factor-mediated conversion of mouse adult fibroblasts into Hb9::GFP+ spinal motor neurons (FIGS. 1A and 1B). An inhibitor of Activin-like kinases 4/5/7 (FIG. 2A) and a Polo-like kinase I (PLK1) inhibitor (FIG. 2B) each increased induced motor neuron formation by 5-10-fold (FIG. 3). In combination, the chemicals increased the rate of induced motor neuron formation by 50-fold (FIG. 3).

[1] = tested on: fibroblasts transduced with Ascl1, Myt1l, and Brn2
Excerpt: To determine if Activin inhibition increases conversion into other neuronal types, fibroblasts were transduced with Ascl1, Myt1l, and Brn2, transcription factors that induce the formation of non-motor neurons, and cultured the cells with or without the Activin inhibitor.

[2] = tested on: Hb9::GFP+ intermediates exhibiting a non-neuronal morphology; conditions: FIG. 6
human fibroblasts = conditions: FIG. 7

| Structure (SMILES) | effect on iMN conversion by time of administration (pulse treatments) (mouse adult fibroblasts) | effect on iMN conversion by time of administration (pulse treatments) (mouse adult fibroblasts; listed as PLK1 inhibitor) | effect on iMN conversion by time of administration (pulse treatments) (mouse adult fibroblasts; listed as Activin inhibitor) | induced neuron (iN) conversion ([1]; FIG. 9) | increase of the number of neurons generated ([1]; with versus without the Activin inhibitor) | survival of FACS-sorted iMNs (FACS-sorted iMNs; SOD1G93A motor neurons, FIG. 5B) | survival of FACS-sorted iMNs (FACS-sorted iMNs; wild-type (WT) motor neurons, FIG. 5A) | survival of Hb9::GFP+ intermediates [2] | generation of patient specific human iMNs (human fibroblasts) |
| --- | --- | --- | --- | --- | --- | --- | --- | --- | --- |
| CC[C@@H]1C(=O)N(C)c2cnc(Nc3ccc(C(=O)NC4CCN(C)CC4)cc3OC)nc2N1C1CCCC1 [BI 2536, 4-[[(7R)-8-cyclopentyl-7-ethyl-5-methyl-6-oxo-7H-pteridin-2-yl]amino]-3-methoxy-N-(1-methylpiperidin-4-yl)benzamide] | improved conversion only during days 6-10 | only active during days 6-10 |  |  |  |  |  |  |  |
| Cc1cccc(-c2[nH]ncc2-c2ccc3ncccc3n2)n1 [RepSox] | improved iMN conversion regardless of the time it is added to the culture medium |  | effective when administered from days 1-5, 6-10, or 11-15 | enhances induced neuron (iN) conversion | 10 fold | promotes survival | promotes survival | promotes survival | promotes generation |
